From patent US6921835B2, “Cyclic amino acids and derivatives thereof useful as pharmaceutical agents” (Warner Lambert Company, priority 1997, dated 2005)
Where a name gives a salt, the structure may show the parent alone. Read-outs that look alike come from different tables or passages of the source.

Experiments:
[1] = system: Carrageenan Induced Thermal Hyperalgesia in the Rat; experiment: Carrageenan-induced thermal hyperalgesia in the rat (plantar test, paw withdrawal latency); type: in vivo; conditions: MPE = maximum possible effect, baseline before carrageenan
Method: Male Sprague-Dawley rats (180-250 g) were obtained from Bantin and Kingman, (Hull, U.K.). Animals were housed in groups of 6 to 10 under a 12 hour light/dark cycle (lights on at 7 hours, 0 minutes) with food and water ad libitum.
Carrageenan-induced Thermal Hyperalgesia in the Rat
Thermal hyperalgesia was assessed using the rat plantar test (Ugo Basile, Italy) following a modified method of Hargreaves, et al., 1988. Rats were habituated to the apparatus which consisted of three individual perspex boxes on an elevated glass table. A mobile radiant heat source located under the table was focused onto the desired paw and paw withdrawal latencies (PWL) recorded. PWL were taken 3 times for both hind paws of each animal, the mean of which represented baselines for right and left hind paws. At least 5 minutes were allowed between each PWL for an animal. The apparatus was calibrated to give a PWL of approximately 10 s. There was an automatic cutoff point of 20 s to prevent tissue damage. After baseline PWLs were determined, animals received an intraplantar injection of carrageenan (100 μL of 20 mg/mL) into the right hind paw. PWLs were reassessed following the same protocol as above 2-hour post-carrageenan (this time point represented the start of peak hyperalgesia) to ascertain that hyperalgesia had developed. Test compounds were administered orally (in a volume of 1 mL/kg) at 2.5 hours after carrageenan. PWLs were reassessed at various times after drug administration.

[2] = target: T1, α2δ subunit (Sus scrofa, UniProt A0A287BIN3); experiment: radioligand binding assay using [3H]gabapentin and the α2δ subunit; parameters: species or system porcine
T1 construct: the α2δ subunit derived from porcine brain tissue was used; from tissue; host or cells: porcine brain tissue

[3] = system: sound-induced tonic seizures in DBA/2 mice; experiment: DBA2 test: prevention of audiogenic seizures in DBA/2 mice; type: in vivo; conditions: DBA/2 mouse
Method: A Model of Anticonvulsant Efficacy and Protocol for DBA2 Test: Prevention of Audiogenic Seizures in DBA/2 Mice
All procedures were carried out in compliance with the NI/H Guide for the Care and Use of Laboratory Animals under a protocol approved by the Parke-Davis Animal Use Committee. Male DBA/2 mice, 3 to 4 weeks old, were obtained from Jackson Laboratories, Bar Harbour, Me. Immediately before anticonvulsant testing, mice were placed upon a wire mesh, 4 inches square suspended from a steel rod. The square was slowly inverted through 180 degrees and mice observed for 30 seconds. Any mouse falling from the wire mesh was scored as ataxic.
Mice were placed into an enclosed acrylic plastic chamber (21 cm height, approximately 30 cm diameter) with a high-frequency speaker (4 cm diameter) in the center of the top lid. An audio signal generator (Protek model B-810) was used to produce a continuous sinusoidal tone that was swept linearly in frequency between 8 kHz and 16 kHz once each 10 msec. The average sound pressure level (SPL) during stimulation was approximately 100 dB at the floor of the chamber. Mice were placed within the chamber and allowed to acclimatize for 1 minute. DBA/2 mice in the vehicle-treated group responded to the sound stimulus (applied until tonic extension occurred, or for a maximum of 60 seconds) with a characteristic seizure sequence consisting of wild running followed by clonic seizures, and later by tonic extension, and finally by respiratory arrest and death in 80% or more of the mice. In vehicle-treated mice, the entire sequence of seizures to respiratory arrest lasts approximately 15 to 20 seconds.
The incidence of all the seizure phases in the drug-treated and vehicle-treated mice was recorded, and the occurrence of tonic seizures were used for calculating anticonvulsant ED50 values by probit analysis. Mice were used only once for testing at each dose point. […] All drugs in the present study were dissolved in distilled water and given by oral gavage in a volume of 10 mL/kg of body weight. compounds that are insoluble will be suspended in 1% carboxymethocellulose. Doses are expressed as weight of the active drug moiety.

T1 sequence (A0A287BIN3 25-1109): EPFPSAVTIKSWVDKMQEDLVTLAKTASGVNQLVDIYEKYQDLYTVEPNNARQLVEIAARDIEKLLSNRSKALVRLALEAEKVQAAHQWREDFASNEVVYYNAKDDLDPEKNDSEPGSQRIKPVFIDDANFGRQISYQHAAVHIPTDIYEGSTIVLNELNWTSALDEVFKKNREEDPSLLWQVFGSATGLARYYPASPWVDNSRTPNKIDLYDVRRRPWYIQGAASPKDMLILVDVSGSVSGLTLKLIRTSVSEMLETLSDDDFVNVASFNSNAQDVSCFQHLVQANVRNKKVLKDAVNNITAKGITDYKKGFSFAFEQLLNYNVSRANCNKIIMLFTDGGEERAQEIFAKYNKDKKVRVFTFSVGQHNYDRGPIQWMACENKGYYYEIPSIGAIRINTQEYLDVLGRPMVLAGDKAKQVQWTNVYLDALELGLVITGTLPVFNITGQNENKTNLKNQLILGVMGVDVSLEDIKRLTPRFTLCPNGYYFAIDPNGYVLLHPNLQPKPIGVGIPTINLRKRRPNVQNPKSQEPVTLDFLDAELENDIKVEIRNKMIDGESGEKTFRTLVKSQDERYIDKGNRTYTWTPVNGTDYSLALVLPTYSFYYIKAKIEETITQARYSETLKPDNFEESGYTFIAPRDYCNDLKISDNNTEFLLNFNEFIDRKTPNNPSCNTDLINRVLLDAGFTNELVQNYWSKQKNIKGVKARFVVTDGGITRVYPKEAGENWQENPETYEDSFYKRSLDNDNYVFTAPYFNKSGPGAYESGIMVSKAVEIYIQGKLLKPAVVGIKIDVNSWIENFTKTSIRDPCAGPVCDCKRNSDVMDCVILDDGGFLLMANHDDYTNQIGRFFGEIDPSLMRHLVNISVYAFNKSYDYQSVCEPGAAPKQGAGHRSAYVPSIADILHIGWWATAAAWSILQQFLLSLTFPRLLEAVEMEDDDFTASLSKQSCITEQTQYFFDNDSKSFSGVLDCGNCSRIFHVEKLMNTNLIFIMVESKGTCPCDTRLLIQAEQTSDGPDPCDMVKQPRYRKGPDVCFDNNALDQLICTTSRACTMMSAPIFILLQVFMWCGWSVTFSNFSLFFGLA

Compound | % MPE 1 hr postdose @ 30 mg/kg PO [1] | % MPE 2 hr postdose @ 30 mg/kg PO [1] | IC50 [2] | % Protected 1 hr postdose 30 mg/kg PO [3] | % Protected (2 hour postdose) 30 mg/kg PO ([3]; 2 hour postdose) | IC50 ([2]; read-out: IC50 (μM) at α2δ binding site)
NCC1(CC(=O)O)CC(Cc2ccccc2)C1 (mixture of isomers) [(cis/trans)-(1-Aminomethyl-3-benzyl-cyclobutyl)-acetic acid hydrochloride] | 0 % MPE | 0 % MPE | > 10 µM |  |  | 
C[C@@H]1CC(CN)(CC(=O)O)C[C@H]1C [(3R,4R)-(1-Aminomethyl-3,4-dimethyl-cyclopentyl)-acetic acid hydrochloride] |  |  | 1 µM |  |  | 
C[C@@H]1CC(CN)(CC(=O)O)C[C@H]1C.Cl (racemic) [(±)-(trans)-(1-Aminomethyl-3,4-dimethyl-cyclopentyl)-acetic acid hydrochloride] | 23 % MPE | 72 % MPE | 0.034 µM | 100% |  | 
Cl.NCC1(CC(=O)O)CCC1 [(1-Aminomethyl-cyclobutyl)-acetic acid hydrochloride] | 4 % MPE | 4 % MPE | 0.598 µM |  | 20 (2 hour postdose) % | 
C[C@@H]1C[C@](CN)(CC(=O)O)C[C@@H]1C [(1α,3β,4β)-(1-Aminomethyl-3,4-dimethyl-cyclopentyl)-acetic acid hydrochloride] | −7 % MPE | −2 % MPE |  | 100% |  | 0.154 µM
C[C@@H]1CCC(CN)(CC(=O)O)C1 (mixture of isomers) [(cis/trans)-(3R)-(1-Aminomethyl-3-methyl-cyclopentyl)-acetic acid hydrochloride] | 67 % MPE | 53 % MPE | 0.088 µM | 100% |  | 
C[C@H]1CC(CN)(CC(=O)O)C[C@@H]1C.Cl [(3S,4S)-(1-Aminomethyl-3,4-dimethyl-cyclopentyl)-acetic acid hydrochloride] | 109 % MPE | 118 % MPE | 0.022 µM | 100% |  | 
